Experimental data from patent publication US20200199102A1, “COMPOUNDS THAT PARTICIPATE IN COOPERATIVE BINDING AND USES THEREOF” (Revolution Medicines, Inc., priority 2017, published 2020).
Where a SMILES comes first, the peptide text is derived from it. [ ]: non-standard residue; d: D form. MeBmt = C/C=C/C[C@@H](C)[C@@H](O)[C@H](NC)C(=O)O; NMeY = CN[C@@H](Cc1ccc(O)cc1)C(=O)O; NMeF = CN[C@@H](Cc1ccccc1)C(=O)O; NMeI = CC[C@H](C)[C@H](NC)C(=O)O; NMeT = CN[C@H](C(=O)O)[C@@H](C)O; NMeL = CN[C@@H](CC(C)C)C(=O)O; NMeV = CN[C@H](C(=O)O)C(C)C; NMeA = CN[C@@H](C)C(=O)O; dNMeA = CN[C@H](C)C(=O)O; Abu = CC[C@H](N)C(=O)O; Sar = CNCC(=O)O

Biological target: T1, Cyclophilin A (Homo sapiens, UniProt P62937)
T1 construct: made in house
Experiment: AlphaLISA inhibition of binding of biotinylated Cyclosporin A to FLAG tagged Cyclophilin A
Conditions: for % signal: AlphaLISA signal; for % signal / % inhibition of CsA binding to Cyclophilin A: test concentration not given; for IC50: read-out: IC50 value of CsA binding to Cyclophilin A
Text: The binding of compounds of the invention to Cyclophilin A can be determined using the following protocol.
This protocol utilizes Perkin Elmers AlphaLISA technology platform to detect cyclosporine analogues by measuring the inhibition of binding of biotinylated Cyclosporin A to FLAG tagged Cyclophilin A.
10×TBST Buffer (Boston BioProducts IBB-181), Biotinylated Cyclosporin A (in-house), FLAG tagged Cyclophilin A (in-house); anti-FLAG Donor beads (PerkinElmer AS103) and Streptavidin Acceptor beads (PerkinElmer AL125); Compounds in DMSO (in-house), Cyclosporin A (LC Labs Cat #C-6000).
Add 20 uL of 6 nM Biotinylated CsA working stock to each well of the 96-well plate. Add 1 uL of test compound (100% DMSO) to each well of the plate using the Janus MTD head and P20 tips (except control wells). Add 1 uL of DMSO to negative control wells and 1 uL of 500 uM Cyclosporin A solution to positive control wells. In the dark, add 20 uL of combined Donor/Acceptor beads to each well. Incubate in the dark for 30 minutes at room temperature. In the dark, add 10 uL of 25 nM Flag tagged CypA working stock to each well. Incubate in the dark for 60 minutes at room temperature. Protect plate from light until reading on Biotek Synergy2 Plate Reader; Alphalisa 96-well protocol (680 excitation/615 emission).

T1 sequence (P62937 whole entry, species assumed): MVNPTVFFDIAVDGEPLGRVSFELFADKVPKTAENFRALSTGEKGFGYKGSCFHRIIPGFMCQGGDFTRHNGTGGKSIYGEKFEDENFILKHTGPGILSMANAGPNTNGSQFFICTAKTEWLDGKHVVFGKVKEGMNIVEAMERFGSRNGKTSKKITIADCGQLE

With `C/C=C/C[C@@H](C)[C@@H](O)[C@H]1C(=O)N[C@@H](CC)C(=O)N(C)CC(=O)N(C)[C@H](C)C(=O)N[C@@H](C(C)C)C(=O)N(C)[C@@H](C)C(=O)N[C@@H](C)C(=O)N[C@H](C)C(=O)N(C)[C@@H](CC(C)C)C(=O)N(C)[C@@H](CC(C)C)C(=O)N(C)[C@@H](C(C)C)C(=O)N1C` [Compound C3] (cyclo([MeBmt][Abu][Sar][dNMeA]V[NMeA]A[dA][NMeL][NMeL][NMeV])) the “% signal” value was 13.43%, the IC50 was less than 2 µM and the “% inhibition of CsA binding to Cyclophilin A” value (shortened to “% inhibition of CsA binding”) was 86.57%.

In the case of `C/C=C/C[C@@H](C)[C@@H](O)[C@H]1C(=O)N[C@@H](CC)C(=O)N(C)CC(=O)N(C)[C@@H](Cc2ccccc2)C(=O)N[C@@H](CC(C)C)C(=O)N(C)[C@@H](CC(C)C)C(=O)N[C@@H](CC(C)C)C(=O)N[C@H](C)C(=O)N(C)[C@@H](CC(C)C)C(=O)N(C)[C@@H](CC(C)C)C(=O)N(C)[C@@H](C(C)C)C(=O)N1C` [Compound C60] (cyclo([MeBmt][Abu][Sar][NMeF]L[NMeL]L[dA][NMeL][NMeL][NMeV])), the “% signal” value is reported as 52.68%, the IC50 is reported as less than 2 µM and the “% inhibition of CsA binding” value is reported as 47.32%.

In the case of `C/C=C/C[C@@H](C)[C@@H](O)[C@H]1C(=O)N[C@@H](CC)C(=O)N(C)CC(=O)N(C)[C@@H](CC(C)C)C(=O)N[C@@H](C(C)C)C(=O)N(C)[C@@H](C)C(=O)N[C@@H](CC(C)C)C(=O)N[C@H](C)C(=O)N(C)[C@@H](CC(C)C)C(=O)N(C)[C@@H](CC(C)C)C(=O)N(C)[C@@H](C(C)C)C(=O)N1C` [Compound C86] (cyclo([MeBmt][Abu][Sar][NMeL]V[NMeA]L[dA][NMeL][NMeL][NMeV])), the “% signal” value is reported as 17.23%, the IC50 is reported as less than 2 µM and the “% inhibition of CsA binding” value is reported as 82.77%.

For `C/C=C/C[C@@H](C)[C@@H](O)[C@H]1C(=O)N[C@@H](CC)C(=O)N(C)CC(=O)N(C)[C@H](C)C(=O)N[C@@H](C(C)C)C(=O)N(C)[C@@H](CC(C)C)C(=O)N[C@@H](CC)C(=O)N[C@H](C)C(=O)N(C)[C@@H](CC(C)C)C(=O)N(C)[C@@H](CC(C)C)C(=O)N(C)[C@@H](C(C)C)C(=O)N1C` [Compound C95] (cyclo([Abu][Sar][dNMeA]V[NMeL][Abu][dA][NMeL][NMeL][NMeV][MeBmt])), the “% signal” value was 6.90%, the IC50 was less than 2 µM and the “% inhibition of CsA binding” value was 93.10%.

For `C/C=C/C[C@@H](C)[C@@H](O)[C@H]1C(=O)N[C@@H](CC)C(=O)N(C)CC(=O)N(C)[C@@H]([C@@H](C)O)C(=O)N[C@@H](C(C)C)C(=O)N(C)[C@@H](C)C(=O)N[C@@H](CC(C)C)C(=O)N[C@H](C)C(=O)N(C)[C@@H](CC(C)C)C(=O)N(C)[C@@H](CC(C)C)C(=O)N(C)[C@@H](C(C)C)C(=O)N1C` [Compound C87] (cyclo([MeBmt][Abu][Sar][NMeT]V[NMeA]L[dA][NMeL][NMeL][NMeV])), the “% signal” value was 4.53%, the IC50 was less than 2 µM and the “% inhibition of CsA binding” value was 95.47%.

`C/C=C/C[C@@H](C)[C@@H](O)[C@H]1C(=O)N[C@@H](CC)C(=O)N(C)CC(=O)N(C)[C@@H](Cc2ccc(O)cc2)C(=O)N[C@@H](C(C)C)C(=O)N(C)[C@@H](CC(C)C)C(=O)N[C@@H](CC(C)C)C(=O)N[C@H](C)C(=O)N(C)[C@@H](CC(C)C)C(=O)N(C)[C@@H](CC(C)C)C(=O)N(C)[C@@H](C(C)C)C(=O)N1C` [Compound C52] (cyclo([MeBmt][Abu][Sar][NMeY]V[NMeL]L[dA][NMeL][NMeL][NMeV])) was tested, and the “% signal” value was 7.40%, the IC50 was less than 2 µM and the “% inhibition of CsA binding” value was 92.60%.

`C/C=C/C[C@@H](C)[C@@H](O)[C@H]1C(=O)N[C@@H](CC)C(=O)N(C)CC(=O)N(C)[C@@H](CC(C)C)C(=O)N[C@@H](C(C)C)C(=O)N(C)[C@@H](C)C(=O)N[C@@H](C)C(=O)N[C@H](C)C(=O)N(C)[C@@H](CC(C)C)C(=O)N(C)[C@@H](CC(C)C)C(=O)N(C)[C@@H](C(C)C)C(=O)N1C` [Compound C6] was tested, and the “% signal” value was 7.29%, the IC50 was less than 2 µM and the “% inhibition of CsA binding” value was 92.71%.

For `C/C=C/C[C@@H](C)[C@@H](O)[C@H]1C(=O)N[C@@H](CC)C(=O)N(C)CC(=O)N(C)CC(=O)N[C@@H](C)C(=O)N(C)CC(=O)N[C@@H](C)C(=O)N[C@H](C)C(=O)N(C)[C@@H](CC(C)C)C(=O)N(C)[C@@H](CC(C)C)C(=O)N(C)[C@@H](C(C)C)C(=O)N1C` [Compound C21] (cyclo([MeBmt][Abu][Sar][Sar]A[Sar]A[dA][NMeL][NMeL][NMeV])), the “% signal” value was 31.08%, the IC50 was less than 2 µM and the “% inhibition of CsA binding” value was 68.92%.

With `C/C=C/C[C@@H](C)[C@@H](O)[C@H]1C(=O)N[C@@H](CC)C(=O)N(C)CC(=O)N(C)[C@@H]([C@@H](C)O)C(=O)N[C@@H](CC(C)C)C(=O)N(C)[C@@H](C)C(=O)N[C@@H](C)C(=O)N[C@H](C)C(=O)N(C)[C@@H](CC(C)C)C(=O)N(C)[C@@H](CC(C)C)C(=O)N(C)[C@@H](C(C)C)C(=O)N1C` [Compound C15] (cyclo([MeBmt][Abu][Sar][NMeT]L[NMeA]A[dA][NMeL][NMeL][NMeV])) the “% signal” value was 2.93%, the IC50 was less than 2 µM and the “% inhibition of CsA binding” value was 97.07%.

With `C/C=C/C[C@@H](C)[C@@H](O)[C@H]1C(=O)N[C@@H](CC)C(=O)N(C)CC(=O)N(C)[C@H](C)C(=O)N[C@@H](C)C(=O)N(C)CC(=O)N[C@@H](C)C(=O)N[C@H](C)C(=O)N(C)[C@@H](CC(C)C)C(=O)N(C)[C@@H](CC(C)C)C(=O)N(C)[C@@H](C(C)C)C(=O)N1C` [Compound C19] (cyclo([MeBmt][Abu][Sar][dNMeA]A[Sar]A[dA][NMeL][NMeL][NMeV])) the “% signal” value was 16.79%, the IC50 was less than 2 µM and the “% inhibition of CsA binding” value was 83.21%.

`C/C=C/C[C@@H](C)[C@@H](O)[C@H]1C(=O)N[C@@H](CC)C(=O)N(C)CC(=O)N(C)[C@H](C)C(=O)N[C@@H](CC(C)C)C(=O)N(C)[C@@H](CC(C)C)C(=O)N[C@@H](CC(C)C)C(=O)N[C@H](C)C(=O)N(C)[C@@H](CC(C)C)C(=O)N(C)[C@@H](CC(C)C)C(=O)N(C)[C@@H](C(C)C)C(=O)N1C` [Compound C59] (cyclo([MeBmt][Abu][Sar][dNMeA]L[NMeL]L[dA][NMeL][NMeL][NMeV])) was tested, and the “% signal” value was 11.76%, the IC50 was less than 2 µM and the “% inhibition of CsA binding” value was 88.24%.

`C/C=C/C[C@@H](C)[C@@H](O)[C@H]1C(=O)N[C@@H](CC)C(=O)N(C)CC(=O)N(C)[C@@H](C(C)C)C(=O)N[C@@H](C(C)C)C(=O)N(C)[C@@H](CC(C)C)C(=O)N[C@@H](CC(C)C)C(=O)N[C@H](C)C(=O)N(C)[C@@H](CC(C)C)C(=O)N(C)[C@@H](CC(C)C)C(=O)N(C)[C@@H](C(C)C)C(=O)N1C` [Compound C53] (cyclo([MeBmt][Abu][Sar][NMeV]V[NMeL]L[dA][NMeL][NMeL][NMeV])) was tested, and the “% signal” value was −0.01%, the IC50 was less than 2 µM and the “% inhibition of CsA binding” value was 100.01%.

For `C/C=C/C[C@@H](C)[C@@H](O)[C@H]1C(=O)N[C@@H](CC)C(=O)N(C)CC(=O)N(C)[C@@H](Cc2ccccc2)C(=O)N[C@@H](C(C)C)C(=O)N(C)[C@@H](C)C(=O)N[C@@H](CC(C)C)C(=O)N[C@H](C)C(=O)N(C)[C@@H](CC(C)C)C(=O)N(C)[C@@H](CC(C)C)C(=O)N(C)[C@@H](C(C)C)C(=O)N1C` [Compound C84] (cyclo([MeBmt][Abu][Sar][NMeF]V[NMeA]L[dA][NMeL][NMeL][NMeV])), the “% signal” value was 6.81%, the IC50 was less than 2 µM and the “% inhibition of CsA binding” value was 93.19%.

With `C/C=C/C[C@@H](C)[C@@H](O)[C@H]1C(=O)N[C@@H](CC)C(=O)N(C)CC(=O)N(C)[C@H](C)C(=O)N[C@@H](C(C)C)C(=O)N(C)[C@@H](C)C(=O)N[C@@H](CC(C)C)C(=O)N[C@H](C)C(=O)N(C)[C@@H](CC(C)C)C(=O)N(C)[C@@H](CC(C)C)C(=O)N(C)[C@@H](C(C)C)C(=O)N1C` [Compound C83] (cyclo([MeBmt][Abu][Sar][dNMeA]V[NMeA]L[dA][NMeL][NMeL][NMeV])) the “% signal” value was 0.65% and the IC50 was less than 2 µM.

`C/C=C/C[C@@H](C)[C@@H](O)[C@H]1C(=O)N[C@@H](CC)C(=O)N(C)CC(=O)N(C)[C@@H]([C@@H](C)CC)C(=O)N[C@@H](C(C)C)C(=O)N(C)[C@@H](C)C(=O)N[C@@H](C)C(=O)N[C@H](C)C(=O)N(C)[C@@H](CC(C)C)C(=O)N(C)[C@@H](CC(C)C)C(=O)N(C)[C@@H](C(C)C)C(=O)N1C` [Compound C1] (cyclo([MeBmt][Abu][Sar][NMeI]V[NMeA]A[dA][NMeL][NMeL][NMeV])) was tested, and the “% signal” value was 0.56%, the IC50 was less than 2 µM and the “% inhibition of CsA binding” value was 99.44%.

With `C/C=C/C[C@@H](C)[C@@H](O)[C@H]1C(=O)N[C@@H](CC)C(=O)N(C)CC(=O)N(C)[C@@H]([C@@H](C)CC)C(=O)N[C@@H](C)C(=O)N(C)CC(=O)N[C@@H](C)C(=O)N[C@H](C)C(=O)N(C)[C@@H](CC(C)C)C(=O)N(C)[C@@H](CC(C)C)C(=O)N(C)[C@@H](C(C)C)C(=O)N1C` [Compound C17] (cyclo([MeBmt][Abu][Sar][NMeI]A[Sar]A[dA][NMeL][NMeL][NMeV])) the “% signal” value was 17.17%, the IC50 was less than 2 µM and the “% inhibition of CsA binding” value was 82.83%.

For `C/C=C/C[C@@H](C)[C@@H](O)[C@H]1C(=O)N[C@@H](CC)C(=O)N(C)CC(=O)N(C)[C@@H](C)C(=O)N[C@@H](C(C)C)C(=O)N(C)[C@@H](C)C(=O)N[C@@H](CC(C)C)C(=O)N[C@H](C)C(=O)N(C)[C@@H](CC(C)C)C(=O)N(C)[C@@H](CC(C)C)C(=O)N(C)[C@@H](C(C)C)C(=O)N1C` [Compound C82] (cyclo([MeBmt][Abu][Sar][NMeA]V[NMeA]L[dA][NMeL][NMeL][NMeV])), the “% signal” value was 0.77%, the IC50 was less than 2 µM and the “% inhibition of CsA binding” value was 99.23%.
